In assay [1] the test system is IL10 secretion, OCI-LY10 cells. The assay is described as follows: Human IL10 secretion assay, Assay 1 (HTRF). The assay is classed as cell-based. As to conditions: 24 h incubation, read-out: IL-10 Secretion IC50 [nM] Assay 1. As for the experimental part: (§1) IL10 is one of the cytokines that are regulated via activation of NF-kB signaling. For example, in ABC-DLBCL cell lines, the activated NF-kB signaling leads to increased IL10 secretion. Inhibition of NF-kB signaling has been shown leading to decreased IL10 secretion.
Assay 1: OCI-LY10 cells were seeded in IMEM supplemented with 20% fetal bovine serum at 3×10^5 cells per well in 96-well round bottom plates (Corning 3799, Corning), treated with 100 nL of 3-fold serial compound dilutions, starting at 10 mM. The final vehicle concentration was 0.1% DMSO in all wells. After 24 h incubation, the cells were transferred to 96-PCR plates (Axygen: PCR-96-FLT-C) and centrifuged, then 16 μL of cell culture media was transferred to HTRF plates and IL10 levels were measured using human IL-10 Assay Kits (Cisbio) using HTRF format. The signals were transformed to percentage of remaining activity by using the high control (HC, median of signal from wells containing cells treated with DMSO) and low control (LC, median of signal from wells with no cells). IC50 values (nM) were determined using 4-parametric curve-fitting and Hill coefficient were obtained using Graph Pad Prism (Graph Pad software, Inc, USA) with non-linear regression analysis.

Assay [2] has as its target full-length MALT1 protein His-MALT1(1-824) (Homo sapiens (Human), UniProt Q9UDY8). Briefly: MALT1 protease assay, Assay 2 (1 nM MALT1, Ac-LRSR-AMC substrate). The assay is classed as biochemical. As to conditions: 1 nM MALT1, 50 μM Ac-LRSR-AMC, 2 h pre-incubation, 8 hr incubation at RT. As for the experimental part:
MALT1 protease activity was assessed in an in vitro assay using a tetrapeptide as substrate and full-length MALT1 protein His-MALT1(1-824) purified from baculovirus-infected insect cells.
The final assay buffer includes 1 nM (Assay 2) or 2 nM (Assay 1) of MALT1 full-length protein, 50 μM Ac-LRSR-AMC substrate, 50 mM Tris pH 7.5, 600 mM Sodium Citrate, 1 mM DTT, 1 mM EDTA, and 0.05% BSA in 384-well plate format using black microtiter square well plates (Optiplate 384-F, Perkin Elmer).
Test compounds were dissolved in 100% DMSO at stock of 10 mM, with final DMSO concentration 0.1%. Test compounds were pre-incubated with MALT1 protein for 2 h at room temperature. Substrate was added after the pre-incubation and fluorescence signal was measured using Envision at excitation 355 nm and emission 460 nm after 8 hr incubation at RT.
The fluorescence units were transformed to percentage of remaining activity by using the high control (HC, median of fluorescence signal from wells containing MALT1 protein, substrate, and DMSO) and low control (LC, median of fluorescence signal from wells with substrate only) with the formula below: […]
IC50 and Hill coefficient were obtained using Graph Pad Prism (Graph Pad software, Inc, USA) with non-linear regression analysis.

In assay [3] the test system is IL10 secretion, OCI-LY10 cells. The assay is described as follows: Human IL10 secretion assay, Assay 2 (Meso Scale Discovery). The assay is classed as cell-based. The note with it: 24 h incubation, MSD, read-out: IL-10 Secretion IC50 [nM] Assay 2. As for the experimental part:
as §1
Assay 2: OCI-LY10 cells were seeded in IMEM supplemented with 20% fetal bovine serum at 4.8×10^5 cells per 160 μL per well in 96-well V-bottom cell culture plates (coming, 3894), treated with 120 nL of 3-fold serial compound dilutions, starting at 4 mM. The final vehicle concentration was 0.075% DMSO in all wells. After a 24 h incubation, human IL-10 pre-coated plates (Meso Scale Discovery) were washed 3 times with PBST, and 50 μL culture medium was aspirated into the MSD plate and incubated at 4° C. overnight. The supernatant was then discarded and the wells were washed 3 times with PBST. SULFO-TAG Anti-human IL-10 Antibody (50×) was diluted 50 fold according to the Meso Scale Protocol, then 25 μL of SULFO-TAG Anti-human IL-10 Antibody (1×) was added. After 2 h of incubation at RT, the supernatant was discarded and the well was washed 3 times with PBST. 2× read buffer was added and the signal was read on an MSD Sector S600. The effect of a particular compound on IL10 secretion is shown relative to the effect of DMSO; set as 100%. IC50 values (nM) were determined using 4-parametric curve-fitting.

Where a name gives a salt, the structure may show the parent alone.

full-length MALT1 protein His-MALT1(1-824), sequence (Q9UDY8 whole entry): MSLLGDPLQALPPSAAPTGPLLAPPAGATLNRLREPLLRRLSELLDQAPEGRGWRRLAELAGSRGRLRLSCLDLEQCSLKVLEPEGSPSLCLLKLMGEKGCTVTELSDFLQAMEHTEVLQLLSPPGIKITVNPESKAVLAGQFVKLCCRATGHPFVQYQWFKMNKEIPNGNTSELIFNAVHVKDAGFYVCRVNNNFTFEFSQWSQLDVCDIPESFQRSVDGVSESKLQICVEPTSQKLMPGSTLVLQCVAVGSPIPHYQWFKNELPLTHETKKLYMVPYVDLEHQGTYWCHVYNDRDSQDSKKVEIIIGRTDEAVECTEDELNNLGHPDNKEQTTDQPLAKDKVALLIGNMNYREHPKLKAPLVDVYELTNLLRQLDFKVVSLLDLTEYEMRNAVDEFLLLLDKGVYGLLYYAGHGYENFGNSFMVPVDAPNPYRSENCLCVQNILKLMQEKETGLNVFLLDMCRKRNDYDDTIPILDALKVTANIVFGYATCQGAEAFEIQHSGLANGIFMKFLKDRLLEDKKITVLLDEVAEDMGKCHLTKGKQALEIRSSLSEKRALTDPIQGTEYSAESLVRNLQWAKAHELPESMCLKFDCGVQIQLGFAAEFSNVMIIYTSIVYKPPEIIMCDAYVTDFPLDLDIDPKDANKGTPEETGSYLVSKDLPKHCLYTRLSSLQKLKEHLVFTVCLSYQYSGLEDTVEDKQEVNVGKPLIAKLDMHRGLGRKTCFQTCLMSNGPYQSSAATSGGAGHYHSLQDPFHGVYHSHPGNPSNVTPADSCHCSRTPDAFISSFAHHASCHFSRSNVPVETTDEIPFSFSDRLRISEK

As usually defined, the IC50 is the concentration that gives 50% inhibition. With `CC1(C(F)(F)F)CN(C(=O)Nc2cnc(-n3nccn3)c(Cl)c2)c2cnc3cc(C(F)F)nn3c21` (centres unmarked) [Compound 62], the IC50 in assay [1] and in assay [2] was 10 to 100 nM in each case. For `C[C@@]1(C(F)(F)F)CN(C(=O)Nc2cnc(-n3nccn3)c(C(F)F)c2)c2cnc3cc(Cl)nn3c21` [compound 35, (R)-2-chloro-N-(5-(difluoromethyl)-6-(2H-1,2,3-triazol-2-yl)pyridin-3-yl)-8-methyl-8-(trifluoromethyl)-7,8-dihydro-6H-pyrazolo[1,5-a]pyrrolo[2,3-e]pyrimidine-6-carboxamide], the IC50 in assay [1] and in assay [3] was 10 to 100 nM each time.

With `C[C@@]1(C(F)(F)F)CN(C(=O)Nc2cnc(-n3nccn3)c(Cl)c2)c2cnc3cc(F)nn3c21` [compound 39, (R)-N-(5-chloro-6-(2H-1,2,3-triazol-2-yl)pyridin-3-yl)-2-fluoro-8-methyl-8-(trifluoromethyl)-7,8-dihydro-6H-pyrazolo[1,5-a]pyrrolo[2,3-e]pyrimidine-6-carboxamide], the IC50 in assay [1] and in assay [3] was 10 to 100 nM each time. As for `C[C@@]1(C(F)(F)F)CN(C(=O)Nc2cnc(-n3nccn3)c(C(F)(F)F)c2)c2cnc3cc(Cl)nn3c21` [compound 40, (R)-N-(6-(2H-1,2,3-triazol-2-yl)-5-(trifluoromethyl)pyridin-3-yl)-2-chloro-8-methyl-8-(trifluoromethyl)-7,8-dihydro-6H-pyrazolo[1,5-a]pyrrolo[2,3-e]pyrimidine-6-carboxamide], the IC50 in assay [1] and in assay [3] was 10 to 100 nM throughout.

In the case of `C[C@@]1(C(F)(F)F)CN(C(=O)Nc2cnc(OC(F)F)c(Cl)c2)c2cnc3cc(Cl)nn3c21` [compound 49, (R)-2-chloro-N-(5-chloro-6-(difluoromethoxy)pyridin-3-yl)-8-methyl-8-(trifluoromethyl)-7,8-dihydro-6H-pyrazolo[1,5-a]pyrrolo[2,3-e]pyrimidine-6-carboxamide], the IC50 in assay [1] and in assay [3] was 10 to 100 nM throughout. Take `C[C@@]1(C(F)(F)F)CN(C(=O)Nc2cnnc(C(F)(F)F)c2)c2cnc3cc(Cl)nn3c21` [compound 59, (R)-11-chloro-3-methyl-3-(trifluoromethyl)-N-[6-(trifluoromethyl)pyridazin-4-yl]-1,5,8,12-tetrazatricyclo[7.3.0.02,6]dodeca-2(6),7,9,11-tetraene-5-carboxamide]: the IC50 in assay [1] and in assay [2] was 10 to 100 nM in each case. Take `C[C@@]1(C(F)(F)F)CN(C(=O)Nc2cc(C#N)nc(C(F)(F)F)c2)c2cnc3cc(Cl)nn3c21` [compound 61, (R)-2-chloro-N-(2-cyano-6-(trifluoromethyl)pyridin-4-yl)-8-methyl-8-(trifluoromethyl)-7,8-dihydro-6H-pyrazolo[1,5-a]pyrrolo[2,3-e]pyrimidine-6-carboxamide]: the values for the IC50 in assay [1] and in assay [2] were 100 to 1000 nM and 10 to 100 nM, respectively. On the same counts, the results for `C[C@@]1(C(F)(F)F)CN(C(=O)Nc2cnn(C(F)F)c2)c2cnc3cc(Cl)nn3c21` [compound 64, (R)-2-chloro-N-(1-(difluoromethyl)-1H-pyrazol-4-yl)-8-methyl-8-(trifluoromethyl)-7,8-dihydro-6H-pyrazolo[1,5-a]pyrrolo[2,3-e]pyrimidine-6-carboxamide] are 10 to 100 nM and 10 to 100 nM. For `C[C@@]1(C(F)(F)F)CN(C(=O)Nc2cnc(C(O)C3CC3)c(Cl)c2)c2cnc3cc(Cl)nn3c21` (stereo partly drawn) [compound 72, (8R)-2-chloro-N-(5-chloro-6-(cyclopropyl(hydroxy)methyl)pyridin-3-yl)-8-methyl-8-(trifluoromethyl)-7,8-dihydro-6H-pyrazolo[1,5-a]pyrrolo[2,3-e]pyrimidine-6-carboxamide], the IC50 in assay [1] is 100 to 1000 nM; in assay [2], 10 to 100 nM. In the same order, the values of `C[C@H](O)COc1ncc(NC(=O)N2C[C@@](C)(C(F)(F)F)c3c2cnc2cc(Cl)nn32)cc1Cl` [compound 73, (R)-2-chloro-N-(5-chloro-6-((S)-2-hydroxypropoxy)pyridin-3-yl)-8-methyl-8-(trifluoromethyl)-7,8-dihydro-6H-pyrazolo[1,5-a]pyrrolo[2,3-e]pyrimidine-6-carboxamide] are 10 to 100 nM and 10 to 100 nM.

Regarding `COc1c(C)cc(NC(=O)N2C[C@@](C)(C(F)(F)F)c3c2cnc2cc(Cl)nn32)nc1O[C@H]1CCNC1` [compound 82, (R)-2-chloro-N-(5-methoxy-4-methyl-6-(((S)-pyrrolidin-3-yl)oxy)pyridin-2-yl)-8-methyl-8-(trifluoromethyl)-7,8-dihydro-6H-pyrazolo[1,5-a]pyrrolo[2,3-e]pyrimidine-6-carboxamide formate], the IC50 in assay [1] was 100 to 1000 nM; in assay [2] it was 10 to 100 nM. With `C[C@H]1COC(=O)N1c1cc(NC(=O)N2C[C@@](C)(C(F)(F)F)c3c2cnc2cc(Cl)nn32)cc(C(F)(F)F)n1` [compound 84, (R)-2-chloro-8-methyl-N-(2-((S)-4-methyl-2-oxooxazolidin-3-yl)-6-(trifluoromethyl)pyridine-4-yl)-8-(trifluoromethyl)-7,8-dihydro-6H-pyrazolo[1,5-a]pyrrolo[2,3-e]pyrimidine-6-carboxamide], the 50% inhibitory concentration (IC50) fell in the range of 100 to 1000 nM in assay [1] and 10 to 100 nM in assay [2].

`C[C@@]1(C(F)(F)F)CN(C(=O)Nc2cnc(-n3nccn3)c(C#N)c2)c2cnc3cc(F)nn3c21` [compound 91, (R)-N-(5-cyano-6-(2H-1,2,3-triazol-2-yl)pyridin-3-yl)-2-fluoro-8-methyl-8-(trifluoromethyl)-7,8-dihydro-6H-pyrazolo[1,5-a]pyrrolo[2,3-e]pyrimidine-6-carboxamide]: the IC50 in assay [3] lay within 10 to 100 nM. On the same count and under the same terms, then `COc1cnn(-c2ncc(NC(=O)N3C[C@@](C)(C(F)(F)F)c4c3cnc3cc(Cl)nn43)cc2Cl)n1` [compound 92, (R)-2-chloro-N-(5-chloro-6(4-methoxy-2H-1,2,3-triazol-2-yl)pyridin-3-yl)-8-methyl-8-(trifluoromethyl)-7,8-dihydro-6H-pyrazolo[1,5-a]pyrrolo[2,3-e]pyrimidine-6-carboxamide], with 10 to 100 nM. In the case of `CN(C)C(=O)c1ncc(NC(=O)N2C[C@@](C)(C(F)(F)F)c3c2cnc2cc(Cl)nn32)cc1C(F)F` [compound 122, (R)-2-chloro-N-(5-(difluoromethyl)-6-(dimethylcarbamoyl)pyridin-3-yl)-8-methyl-8-(trifluoromethyl)-7,8-dihydro-6H-pyrazolo[1,5-a]pyrrolo[2,3-e]pyrimidine-6-carboxamide], the IC50 in assay [1] and in assay [3] was 10 to 100 nM in each case. On to `Cc1cc(NC(=O)N2C[C@@](C)(C(F)(F)F)c3c2cnc2cc(F)nn32)cnc1-n1nccn1` [compound 125, (R)-2-fluoro-8-methyl-N-(5-methyl-6-(2H-1,2,3-triazol-2-yl)pyridin-3-yl)-8-(trifluoromethyl)-7,8-dihydro-6H-pyrazolo[1,5-a]pyrrolo[2,3-e]pyrimidine-6-carboxamide], for which the IC50 in assay [1] and in assay [3] was 10 to 100 nM each time. Consider `CCN(C)C(=O)c1ncc(NC(=O)N2C[C@@](C)(C(F)(F)F)c3c2cnc2cc(Cl)nn32)cc1C(F)F` [compound 149, (R)-2-chloro-N-(5-(difluoromethyl)-6-(ethyl(methyl)carbamoyl)pyridin-3-yl)-8-methyl-8-(trifluoromethyl)-7,8-dihydro-6H-pyrazolo[1,5-a]pyrrolo[2,3-e]pyrimidine-6-carboxamide], for which the IC50 in assay [1] and in assay [3] was 10 to 100 nM in each case.

For the origin of these results see US20240018157A1, “CYCLIC COMPOUNDS AND METHODS OF USING SAME” (Schrödinger, Inc., priority 2019, published 2024).
